Experimental findings from patent US20220009894A1, “1,2,3,4-TETRAHYDROQUINOXALINE DERIVATIVE, PREPARATION METHOD THEREFOR AND APPLICATION THEREOF” (Abbisko Therapeutics Co., Ltd., priority 2019, published 2022) are described below.

Assay [1] addresses T1, RORγt (Homo sapiens, UniProt P51449).
T1 construct: The plasmid of pFN26A-RORγt-LBD and pG14.35 (Promega, Cat. No. E1370) were co-transfected into HEK 293 cells; expressed in transfected cells; host or cells: HEK 293 cells (Cat. No. GNHu18)
T1 sequence (P51449 269-508 limits assumed): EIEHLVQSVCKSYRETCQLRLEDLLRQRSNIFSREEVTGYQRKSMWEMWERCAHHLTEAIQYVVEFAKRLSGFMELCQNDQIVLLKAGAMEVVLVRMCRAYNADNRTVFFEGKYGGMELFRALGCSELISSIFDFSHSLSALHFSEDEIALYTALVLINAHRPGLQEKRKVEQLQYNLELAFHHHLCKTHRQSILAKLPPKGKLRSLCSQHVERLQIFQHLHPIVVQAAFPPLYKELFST
The assay can be described thus: RORγt cellular reporter gene detection assay.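 As to Cellular Reporter Assay Amax: Ursolic Acid added as 5 µL of 20 µM medium per well.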 In kind it is cell-based. The conditions noted are these: 24 hrs; for EC50: HEK 293 cells co-transfected with pFN26A-RORγt-LBD and pG14.35, in presence of antagonist Ursolic acid, top concentration 50 μM; for Cellular Reporter Assay Amax: upper activation limit, HEK 293 cells, in presence of antagonist Ursolic acid. How it is done: II. RORγt Cellular Reporter Gene Detection Assay
In this experiment, RORγt Reporter Gene Detection method was used to evaluate the activation and specificity of compounds to RORγt in cells. The plasmid of pFN26A-RORγt-LBD and pG14.35 (Promega, Cat. No. E1370) were co-transfected into HEK 293 cells (Cat. No. GNHu18). The efficacy of compounds was evaluated with the presence of an antagonist Ursolic acid (Selleck, Cat. No. S2370-100 mg). The specific experimental process was as follow: • 1. The plasmids-co-transfected cells were inoculated into a 96-well plate (Corning, Cat. No 3610) in a fresh DMEM medium (Gibco, cat. No. 1773536) containing 10% fetal bovine serum (Gibco, Cat. No. 10099-141) at 30000 cells/40 μL/well; • 2. 5 μL of medium containing 20 μM Ursolic acid was added thereto; • 3. The dose effect was evaluated by a 4-fold dilution of the test compound starting from 50 μM; • 4. 5 μL of medium containing a compound concentration of 10-fold of its final test concentration was added; • 5. After the cells were incubated at 37° C. and 5% CO2 for 24 hrs, 50 μL of detection reagent was added to detect firefly fluorescence using PerkinElmerEnVision, and 50 μL of the second detection reagent was added to detect sea kidney fluorescence; • 6. A four-parameter curve simulated in GraphPad Prism was used to determine the concentration for 50% activation (EC50) and the upper activation limit (Amax) for each compound.
(In general: In a reporter assay the amount or activity of a reporter protein is the signal.)

The target of assay [2] is T2, RORγt-LBD (Homo sapiens, UniProt P51449).
T2 sequence (P51449 269-508 limits assumed): T1 sequence (P51449 269-508 limits assumed)
The assay is described as follows: Time-resolved fluorescence resonance energy-transfer assay (TR-FRET), co-activator peptide recruitment. Format: biochemical. Also on record: TR-FRET Biochemical Amax: unit not given here. The settings on record: for EC50: His-RORγt-LBD 30 nM, SRC peptide 500 nM, agonistic activity, averages of one or more measurements, read-out: TR-FRET Biochemical EC50/; for TR-FRET Biochemical Amax: upper activation limit, His-RORγt-LBD, SRC peptide. An excerpt:
I. Time-Resolved Fluorescence Resonance Energy-Transfer Assay (TR-FRET)
This experiment was a screening experiment for RORγt nuclear receptor agonists based on TR-FRET technology. When His-labeled RORγt-LBD receptor binds to receptor agonists, it may increase the recruitment of biotin-labeled co-activator peptides. Europium-His-RORγt-LBD is indirectly labeled by donor (Eu) by binding to Eu-anti-His antibody. Once Eu is activated by an energy source (such as flashlight or laser), the energy will be transferred to the co-activator indirectly labeled by allophycocyanin by binding of allophycocyanin-streptavidin and biotin-labeled co-activator. • 1. 10× buffer (500 mM Tris-HCl, 500 mM KCl, and 10 mM Na-EDTA) was prepared, pH value was adjusted to 7.0. The buffer was stored at 4° C. for later use and was restored to normal temperature before experiment; • 2. The 10× buffer was diluted to 1× with pure water. Final concentration of 0.01% Triton X-100 and 1 mM DTT (dithiothreitol) were added to prepare the assay buffer; • 3. DMSO was used to prepare 1000× compound stock solution. The compound solution was serial-diluted in 5-fold for 7 concentrations from the top concentration of 1000 nM/10000 nM. Then the 10× compound solution was prepared with assay buffer. An amount of 2 μL was aliquoted into the 20 μL system; • 4. 5×RORγt-LBD protein solution was unfreezed, and a solution of 5× concentration was prepared with assay buffer to obtain a final concentration of 30 nM. The whole operation was carried out on ice; • 5. 5×SRC peptide was unfreezed, and a solution of 5× concentration was prepared with assay buffer to obtain a final concentration of 500 nM. The whole operation was carried out on ice; • 6. 4 μL/well of RORγt-LBD receptor was added into the testing wells of 384-well plate, and the same amount of assay buffer was added to the control wells of non-RORγt-LBD group; • 7. 2 μL of compound was added into each well of 384-well plate; • 8. 4 μL of SRC peptide was added into each well of 384-well plate; • 9. 2× Eu-anti-6× His/APC-Streptavidin was diluted with Lance detection buffer to a final concentration of 0.25 nM and 5 nM, respectively, and then 10 μL of 2× Eu-anti-6× His/APC-Streptavidin was added into each well of 384-well plate; • 10. The mixed solution was incubated at 4° C. overnight; • 11. On the morning of the next day, the 384-well plate was incubated at room temperature for 1 hr. Then the corresponding signal values were read with PerkinElmer EnVision at a wavelength of 665/615 […]. The agonistic activity of the corresponding compound was calculated with Graphpad Prism 7.0 software.

On to `CN1CCN(S(=O)(=O)c2cccc(C(F)(F)F)c2)c2cc(-c3cc(F)cc(OC(F)F)c3)ccc21` [Example 1, 6-(3-(difluoromethoxy)-5-fluorophenyl)-1-methyl-4-((3-(trifluoromethyl)phenyl)sulfonyl)-1,2,3,4-tetrahydroquinoxaline], for which, in assay [1], the EC50 was determined as 518 nM and the “Cellular Reporter Assay Amax” value stood at 3.3. Moreover, in assay [2], the EC50 came out at 18.4 nM and the “TR-FRET Biochemical Amax” value is recorded as 1.61.
For the compound `O=S(=O)(c1cccc(C(F)(F)F)c1)N1CCNc2ccc(-c3cc(F)cc(OC(F)F)c3)cc21` [Example 2, 7-(3-(difluoromethoxy)-5-fluorophenyl)-1-((3-(trifluoromethyl)phenyl)sulfonyl)-1,2,3,4-tetrahydroquinoxaline], in assay [1], the EC50 was 163 nM and the “Cellular Reporter Assay Amax” value is listed as 3.1. Also, in assay [2], the EC50 was 18.1 nM and the “TR-FRET Biochemical Amax” value was determined as 1.85.
For `C/C(=C\c1ccc2c(c1)N(S(=O)(=O)c1cccc(C(F)(F)F)c1)C[C@H](CCC(=O)O)N2C)c1c(F)cccc1Cl` [Example 3, (S,E)-3-(6-(2-(2-chloro-6-fluorophenyl)prop-1-en-1-yl)-1-methyl-4-((3-(trifluoromethyl)phenyl)sulfonyl)-1,2,3,4-tetrahydroquinoxalin-2-yl)propanoic acid], in that order: 1740 nM, 4.4, 29.1 nM and 1.20.
As to `O=S(=O)(c1cccc(C(F)(F)F)c1)N1C[C@@H]2CCCN2c2ccc(-c3cc(F)cc(OC(F)F)c3)cc21` [Example 4, (S)-7-(3-(difluoromethoxy)-5-fluorophenyl)-5-((3-(trifluoromethyl)phenyl)sulfonyl)-1,2,3,3a,4,5-hexa-hydropyrrolo[1,2-a]qui-noxaline], in assay [1], the EC50 was 3550 nM and the “Cellular Reporter Assay Amax” value is given as 4.9. In addition, in assay [2], the EC50 came out at 28.4 nM and the “TR-FRET Biochemical Amax” value was 1.25.
Take `CN1c2ccc(-c3cc(F)cc(OC(F)F)c3)cc2N(S(=O)(=O)c2cccc(C(F)(F)F)c2)C[C@@H]1CCC(=O)O` [Example 5, (S)-3-(6-(3-(difluorome-thoxy)-5-fluorophenyl)-1-methyl-4-((3-(trifluorometh-yl)phenyl)sulfonyl)-1,2,3,4-tetrahydroquinoxalin-2-yl)propanoic acid]: in assay [1], the EC50 was 1030 nM and the “Cellular Reporter Assay Amax” value worked out at 5.0. Also, in assay [2], the EC50 is 9.68 nM and the “TR-FRET Biochemical Amax” value is reported as 1.39.
On the same counts, the results for `CN1c2ccc(/C=C/c3c(Cl)cccc3C(F)(F)F)cc2N(S(=O)(=O)c2cccc(C(F)(F)F)c2)C[C@@H]1CCC(=O)O` [Example 6, (S,E)-3-(6-(2-chloro-6-(tri-fluoromethyl)styryl)-1-meth-yl-4-((3-(trifluoromethyl)phenyl)sulfonyl)-1,2,3,4-tetrahydroquinoxalin-2-yl) propanoic acid] are 528 nM, 4.2, 16.1 nM and 1.54.
Consider `CC(=O)N1CCN2c3ccc(-c4cc(F)cc(OC(F)F)c4)cc3N(S(=O)(=O)c3cccc(C(F)(F)F)c3)C[C@@H]2C1` [Example 7, (S)-1-(8-(3-(difluoromethoxy)-5-fluorophenyl)-6-((3-(trifluoromethyl)phenyl)sulfonyl)-1,2,4,4a,5,6-hexahydro-3H-pyrazino[1,2-a]quinoxalin-3-yl)ethan-1-one], for which, in assay [1], the EC50 amounted to 145 nM and the “Cellular Reporter Assay Amax” value is recorded as 3.7. Moreover, in assay [2], the EC50 was 17.5 nM and the “TR-FRET Biochemical Amax” value is 1.45.
For `CS(=O)(=O)N1CCN2c3ccc(-c4cc(F)cc(OC(F)F)c4)cc3N(S(=O)(=O)c3cccc(C(F)(F)F)c3)C[C@@H]2C1` [Example 8, (S)-8-(3-(difluoromethoxy)-5-fluorophenyl)-3-(methylsulfonyl)-6-((3-(trifluoromethyl)phenyl)sulfonyl)-2,3,4,4a,5,6-hexahydro-1H-pyrazino[1,2-a]quinoxaline], in assay [1], the EC50 came to 90.4 nM and the “Cellular Reporter Assay Amax” value stood at 5.5. In assay [2], the EC50 is 13.3 nM and the “TR-FRET Biochemical Amax” value is 1.22.
On the same counts, the results for `O=C(O)CN1CCN2c3ccc(-c4cc(F)cc(OC(F)F)c4)cc3N(S(=O)(=O)c3cccc(C(F)(F)F)c3)C[C@@H]2C1` [Example 9, (S)-2-(8-(3-(difluoromethoxy)-5-fluorophenyl)-6-((3-(trifluoromethyl)phenyl)sulfonyl)-1,2,4,4a,5,6-hexahydro-3H-pyrazino[1,2-a]quinoxalin-3-yl)acetic acid] are 290 nM, 3.5, 11.6 nM and 0.63.
For `C/C(=C\c1ccc2c(c1)N(S(=O)(=O)c1cccc(C(F)(F)F)c1)C[C@@H]1CNCCN21)c1c(F)cccc1Cl` [Example 10, (S,E)-8-(2-(2-chloro-6-fluorophenyl)prop-1-en-1-yl)-6-((3-(trifluoromethyl)phenyl)sulfonyl)-2,3,4,4a,5,6-hexahydro-1H-pyrazino[1,2-a]quinoxaline], in assay [1], the EC50 is 578 nM and the “Cellular Reporter Assay Amax” value is reported as 2.8. For the same compound, in assay [2], the EC50 was 13.6 nM and the “TR-FRET Biochemical Amax” value stood at 0.81.
Turning to `O=S(=O)(c1cccc(C(F)(F)F)c1)N1C[C@@H]2CNCCN2c2ccc(/C=C/c3c(Cl)cccc3C(F)(F)F)cc21` [Example 11, (S,E)-8-(2-chloro-6-(tri-fluoromethyl)styryl)-6-((3-(trifluoromethyl)phenyl)sulfonyl)-2,3,4,4a,5,6-hexa-hydro-1H-pyrazino[1,2-a]quinoxaline], in assay [1], the EC50 came to 429 nM and the “Cellular Reporter Assay Amax” value is 3.2. Besides, in assay [2], the EC50 is 21.7 nM and the “TR-FRET Biochemical Amax” value worked out at 0.82.
For `CC1(C)C=C(c2ccc3c(c2)N(S(=O)(=O)c2cccc(C(F)(F)F)c2)C[C@@H]2CN(C[C@@H](O)CO)CCN32)CC(C)(C)O1` [Example 41, (R)-3-((S)-8-(2,2,6,6-tetrameth-yl-3,6-dihydro-2H-pyran-4-yl)-6-((3-(trifluoromethyl)phe-nyl)sulfonyl)-1,2,4,4a,5,6-hexa-hydro-3H-pyrazino[1,2-a]qui-noxalin-3-yl)propane-1,2-diol], in assay [2], the EC50 was 6.73 nM and the “TR-FRET Biochemical Amax” value came to 1.01.
